Read-outs that look alike come from different tables or passages of the source.
Key:
[1] = LC-MS/MS urinary metabolic profile of patients receiving warfarin; conditions: for % R / % S (proportion in (S)-enantiomeric form) / % conjugated (proportion glucuronidated) / urinary concentration: urine; for urinary concentration: free and conjugated; for share of (S)-WAR P450 metabolites measured: three urine specimens
Description: All chemicals used in this study were of at least reagent grade. Unless otherwise specified, all chemicals and reagents were purchased from either Sigma-Aldrich (St. Louis, Mo.) or Thermo Fisher Scientific (Waltham, Mass.). […] Ethyl alcohol (100%) was purchased from AAPER (Shelbyville, Ky.). Re-combinant CYP2C9*1, CYP3A4, CYP1A2, and CYP2C19 were expressed in baculovirus-infected insect cells and purchased from BD Biosciences (San Jose, Calif.). Commercially available urine specimens from three females (F84, F85, and F87) were provided by the Emergency Response and Air Toxicants Branch, Division of Laboratory Science National Center for Environmental Health Centers for Disease Control and Prevention (DeKalb County, Ga.). Patient studies were conducted under IRB-approved protocols, and all patients signed informed consent documentation.
This analytical phase was accomplished by reverse-phase HPLC using a 4.6 mm×150 mm C18 Zorbax Eclipse 5 μm XDB-C18 column provided by Agilent (Santa Clara, Calif.). The operating temperature was 40° C., and the sample injection volume was 5.0 μL. HPLC mobile phases consisted H2O (0.1% acetic acid v/v) (A) and methanol (0.1% acetic acid v/v) (B). The flow rate was 1 mL/min. […] The total run time per sample was 10 min. Specific MS/MS experimental conditions used in this study are noted in Table 1.
To determine the relative abundance of the (R)-and (S)-enantiomers of each metabolite, a 4.6 mm×25 cm Chirobiotic V5 μm column supplied by Supelco (Bellefonte, Pa.) was incorporated during the second analytical phase. Mobile phases consisted of H2O (0.1% acetic acid v/v) (A) and acetonitrile (0.1% acetic acid v/v) (B) with a flow rate of 800 μL/min. Enantiomeric separations were accomplished under isocratic conditions (80% A and 20% B). The sample injection volume was 15.0 μL. Enantiomeric MS/MS analyses were performed in negative ion mode by electrospray ionization (ESI) using a Turbo IonSpray source. A total run time of 20 min was required for adequate resolution. Specific MS/MS experimental conditions used in this study are noted in the Table 2.
Each response was normalized to that of the internal standard, 7-hydroxycoumarin (10 μM). […] Measurements of these three metabolites were calculated by taking the difference of the amount measured in the first analytical phase, which contained both (R)-and (S) isomers from the amount of the (S)-isomer measured in the second analytical phase (eq 3). Glucuronidated metabolites were measured by incubating 250 μL of urine with 2000 units of GUS in 100 mM sodium acetate buffer, pH 5.0. The final volume for each of these reactions was 1 mL. Control reactions omitting GUS were included with each sample set. Reactions were incubated overnight at 37° C., after which they were stored at −80° C. Immediately before analysis, both samples were diluted with an equal volume of ethanol containing 7-hydroxycoumarin (10 μM final concentration). The difference between GUS-treated samples and controls represented the amount of glucuronidated metabolites present.

CYP2C9 = CYP2C9 (Homo sapiens, UniProt P11712); conditions: read-out: IC50 toward recombinant CYP2C9 activity; P450-Glo, 50 μM Luciferin H; racemic compounds
Sequence of CYP2C9 (P11712 whole entry): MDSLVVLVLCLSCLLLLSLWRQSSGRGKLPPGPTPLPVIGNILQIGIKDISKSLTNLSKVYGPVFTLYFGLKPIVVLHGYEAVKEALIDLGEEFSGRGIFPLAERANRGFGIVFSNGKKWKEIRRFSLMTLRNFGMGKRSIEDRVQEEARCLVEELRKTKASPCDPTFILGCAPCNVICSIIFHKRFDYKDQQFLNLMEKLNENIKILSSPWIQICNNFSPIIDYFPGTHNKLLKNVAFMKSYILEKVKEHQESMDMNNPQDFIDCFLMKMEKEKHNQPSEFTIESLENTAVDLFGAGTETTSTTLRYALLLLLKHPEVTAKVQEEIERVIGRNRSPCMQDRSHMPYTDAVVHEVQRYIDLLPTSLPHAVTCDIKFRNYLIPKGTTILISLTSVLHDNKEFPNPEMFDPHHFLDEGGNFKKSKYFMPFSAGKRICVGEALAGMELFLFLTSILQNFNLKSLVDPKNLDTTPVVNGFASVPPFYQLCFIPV
Experimental: Hydroxywarfarins were screened for inhibitory potential toward recombinant CYP2C9 using the Promega (Madison, Wis.) CY2C9 P450-Glo™ Assay using the manufacturer's protocol. These IC50 studies were analyzed on a PerkinElmer Victor^3V™ 1420 Multilabel Counter. Recombinant CYP2C9, 50 nM, was incubated with 50 μM Luciferin H, and six concentrations of each hydroxywarfarin from approximately 10 nM to 4 mM final concentration, as optimized for each compound. The appropriate volume of hydroxywarfarin stocks in 100% ethanol were added to each well prior to addition of the substrate and enzyme, and the ethanol was allowed to evaporate at room temperature to minimize solvent effects on CYP2C9 activity. A final DMSO concentration of 1% was present in the reactions due to the P450-Glo Luciferin H. The reaction was initiated upon addition of an NADPH regenerating solution (BD Biosciences) and quenched with a luciferase quench (Promega) at 30 min.

[2] = biological target: CYP2C9 present in the human liver microsomes (Homo sapiens, UniProt P11712); conditions: for Ki / Mechanism of inhibition: S-warfarin metabolism
Sequence of CYP2C9 present in the human liver microsomes (P11712 whole entry): as above
Experimental: (§1) For each hydroxywarfarin, at least 4 independent experimental replicates were performed.
(§2) MS/MS experimental conditions was used as described previously (6).
(§3) The most probable inhibition mechanism for recombinant CYP2C9 and human liver microsome reactions was identified using DynaFit ver. 3.28 (Biokin, Ltd) (20). Data from each set of hydroxywarfarin experiments were fit to traditional reversible inhibition mechanisms (competitive, uncompetitive, noncompetitive, or mixed). The respective kinetic parameters (Ki and Ki′) were set as variables, while the kinetic parameters (Vmax and Km) were constants based on values obtained from uninhibited reactions. The most probable mechanism was then identified using the Akaike Information Criterion (AICc) for model discrimination (21).

CYP2C9*1 [3] = biological target: T1, CYP2C9*1 (Homo sapiens, UniProt P11712); conditions: for Ki / Mechanism of inhibition: S-warfarin metabolism
Experimental: as §1, §2, §3

CYP1A2 = biological target: T2, CYP1A2 (Homo sapiens, UniProt P05177); conditions: read-out: IC50 for CYP marker reaction; P450-Glo marker reaction
T2 sequence (P05177 1-516): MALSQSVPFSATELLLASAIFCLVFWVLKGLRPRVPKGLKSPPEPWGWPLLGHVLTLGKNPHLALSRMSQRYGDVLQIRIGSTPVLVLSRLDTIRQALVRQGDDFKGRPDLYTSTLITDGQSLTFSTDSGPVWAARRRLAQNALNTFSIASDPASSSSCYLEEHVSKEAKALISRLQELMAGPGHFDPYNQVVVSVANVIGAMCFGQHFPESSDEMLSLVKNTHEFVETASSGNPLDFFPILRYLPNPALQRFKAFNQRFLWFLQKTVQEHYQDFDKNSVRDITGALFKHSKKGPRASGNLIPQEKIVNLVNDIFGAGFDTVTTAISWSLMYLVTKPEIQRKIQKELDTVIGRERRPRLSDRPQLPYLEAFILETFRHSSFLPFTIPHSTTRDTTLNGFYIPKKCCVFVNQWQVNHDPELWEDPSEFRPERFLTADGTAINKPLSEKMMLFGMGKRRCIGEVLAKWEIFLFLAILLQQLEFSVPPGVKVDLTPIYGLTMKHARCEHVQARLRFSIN

CYP2C9*1 [4] = biological target: T1, CYP2C9*1; conditions: read-out: IC50 for CYP marker reaction; P450-Glo marker reaction
CYP3A4 [5] = biological target: T3, CYP3A4 (Homo sapiens, UniProt P08684); conditions: read-out: IC50 for CYP marker reaction; P450-Glo marker reaction
T3 sequence (P08684 whole entry): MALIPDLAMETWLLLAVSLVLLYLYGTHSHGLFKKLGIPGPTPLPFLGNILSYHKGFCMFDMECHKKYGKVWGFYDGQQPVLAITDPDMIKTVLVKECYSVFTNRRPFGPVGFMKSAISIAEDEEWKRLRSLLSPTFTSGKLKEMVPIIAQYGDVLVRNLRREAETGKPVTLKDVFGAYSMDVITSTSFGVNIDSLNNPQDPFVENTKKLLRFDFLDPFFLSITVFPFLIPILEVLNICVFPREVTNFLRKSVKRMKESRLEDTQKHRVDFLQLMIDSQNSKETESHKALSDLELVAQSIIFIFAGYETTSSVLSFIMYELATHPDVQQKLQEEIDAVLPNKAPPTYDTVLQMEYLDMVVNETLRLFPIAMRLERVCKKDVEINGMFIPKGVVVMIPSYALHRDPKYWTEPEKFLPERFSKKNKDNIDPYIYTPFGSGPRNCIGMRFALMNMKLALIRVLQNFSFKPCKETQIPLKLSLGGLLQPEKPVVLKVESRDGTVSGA

plasma proteins = conditions: cited from earlier work
UGT1A10 = UGT1A10 (Homo sapiens, UniProt Q9HAW8); conditions: glucuronidation; racemic OHWars
Sequence of UGT1A10 (Q9HAW8 26-530): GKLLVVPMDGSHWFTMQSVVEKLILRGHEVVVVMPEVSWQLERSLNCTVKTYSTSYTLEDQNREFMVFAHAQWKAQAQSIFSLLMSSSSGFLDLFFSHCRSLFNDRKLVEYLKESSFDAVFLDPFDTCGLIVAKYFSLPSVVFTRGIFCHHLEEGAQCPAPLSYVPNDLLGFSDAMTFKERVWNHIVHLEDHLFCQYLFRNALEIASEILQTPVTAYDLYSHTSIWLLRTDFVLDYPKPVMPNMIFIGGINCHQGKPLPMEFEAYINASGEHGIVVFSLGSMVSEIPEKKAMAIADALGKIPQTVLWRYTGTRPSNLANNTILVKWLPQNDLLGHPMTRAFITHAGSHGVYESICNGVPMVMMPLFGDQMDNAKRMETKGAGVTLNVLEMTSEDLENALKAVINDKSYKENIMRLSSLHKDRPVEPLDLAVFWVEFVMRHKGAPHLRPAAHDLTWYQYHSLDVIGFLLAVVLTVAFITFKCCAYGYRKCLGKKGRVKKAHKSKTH
Description: (§4) The characterization of hepatic and extrahepatic glucuronidation may be made based on glucuronidation studies with 100 commercially available HLM and 100 intestinal microsomal preparations available in our laboratory. […] Both racemic mixtures and separated R and S enantiomers may be assayed. […] Activities of extrahepatic (UGT1A8 and UGT1A10) and hepatic (UGT1A1, UGT1A3, and UGT1A9) isoforms may be compared to that of their respective microsomal preparations, and assign the contribution of specific UGTs to product formation by the human samples.

UGT1A1 = UGT1A1 (Homo sapiens, UniProt P22309); conditions: glucuronidation; racemic OHWars
Sequence of UGT1A1 (P22309 26-533): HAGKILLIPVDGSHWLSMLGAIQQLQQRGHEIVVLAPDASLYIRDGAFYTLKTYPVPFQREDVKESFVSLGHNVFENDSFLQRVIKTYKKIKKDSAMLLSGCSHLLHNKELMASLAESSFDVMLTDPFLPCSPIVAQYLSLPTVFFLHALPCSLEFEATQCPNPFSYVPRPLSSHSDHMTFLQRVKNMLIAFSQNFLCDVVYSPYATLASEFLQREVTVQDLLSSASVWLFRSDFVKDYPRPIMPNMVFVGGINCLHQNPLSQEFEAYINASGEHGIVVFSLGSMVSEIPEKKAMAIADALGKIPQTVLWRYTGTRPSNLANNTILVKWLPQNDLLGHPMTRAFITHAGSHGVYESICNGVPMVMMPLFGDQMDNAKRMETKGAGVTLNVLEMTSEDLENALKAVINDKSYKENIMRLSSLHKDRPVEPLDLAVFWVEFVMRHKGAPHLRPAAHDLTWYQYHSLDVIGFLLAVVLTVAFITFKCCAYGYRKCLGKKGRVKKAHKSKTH
Description: as §4

[6] = Estimated unbound levels in plasma of long-term warfarin therapy patients; conditions: estimated from literature data
CYP3A4 [7] = biological target: T3, CYP3A4; assay: Steady-state metabolism of R- and S-warfarin by recombinant CYP3A4
Experimental: (§5) Reactions were initiated upon addition of an NADPH regenerating system [2 μU μL-1 glucose 6-phosphate dehydrogenase, 10 mM glucose 6-phosphate, 2 mM MgCl2, 1 mM NADP^+]. […] The quenched reactions were centrifuged and the resulting supernatant containing substrate and products resolved and quantified by UPLC-MS/MS. Each experiment was performed in at least 4 independent experimental replicates.
(§6) The flow rate was constant at 250 μL/min. […] Electrospray conditions were as follows: spray voltage of 4500 V, sheath gas pressure 45, auxiliary gas pressure 20, and collision energy of 15-15 eV (compound specific).
(§7) Final metabolite concentrations were calculated from the ratio of metabolite area to internal standard area in the sample and compared to calibration curves as determined from the UPLC-MS/MS method. All compounds were quantified relative to authentic standards. The resulting kinetic data were analyzed with GraphPad Prism 5® software. Non-linear regression analysis was used to fit steady-state data to the Michaelis-Menten equation to determine the Vmax and Km parameters.

CYP3A7 = CYP3A7 (Homo sapiens, UniProt P24462); assay: Steady-state metabolism of R- and S-warfarin by recombinant CYP3A7
Sequence of CYP3A7 (P24462 whole entry): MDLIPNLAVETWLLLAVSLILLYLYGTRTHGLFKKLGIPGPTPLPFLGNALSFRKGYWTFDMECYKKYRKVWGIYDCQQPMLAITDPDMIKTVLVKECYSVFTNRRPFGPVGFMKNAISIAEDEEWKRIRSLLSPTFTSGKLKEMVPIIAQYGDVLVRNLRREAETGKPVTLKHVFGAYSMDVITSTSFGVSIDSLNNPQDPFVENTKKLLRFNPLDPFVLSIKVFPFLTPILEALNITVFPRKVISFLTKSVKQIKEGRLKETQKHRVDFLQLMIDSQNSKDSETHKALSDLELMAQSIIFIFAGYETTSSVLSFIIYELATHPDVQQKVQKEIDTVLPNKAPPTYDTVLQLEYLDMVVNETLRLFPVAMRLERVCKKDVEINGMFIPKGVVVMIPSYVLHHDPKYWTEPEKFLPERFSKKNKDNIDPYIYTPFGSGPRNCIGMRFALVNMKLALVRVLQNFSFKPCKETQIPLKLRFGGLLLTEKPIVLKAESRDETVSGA
Experimental: as §5, §6, §7

[8] = 7-hydroxywarfarin formation as marker
[9] = based on S-6-hydroxywarfarin formation
[10] = 10-hydroxywarfarin formation, 37° C, pH 7.4

CC(=O)CC(c1ccc(O)cc1)c1c(O)c2ccccc2oc1=O (stereo not shown) [4′-OH-WAR, 4′-hydroxywarfarin]
% R ([1]; patient F84): 64%
% S (proportion in (S)-enantiomeric form) ([1]; patient F84): 56%
% conjugated (proportion glucuronidated) ([1]; patient F84): 47%
urinary concentration ([1]; patient F84): 140 nM
% R ([1]; patient F85): 25%
% S (proportion in (S)-enantiomeric form) ([1]; patient F85): 75%
urinary concentration ([1]; patient F85): 94 nM
% R ([1]; patient F87): 30%
% S (proportion in (S)-enantiomeric form) ([1]; patient F87): 70%
urinary concentration ([1]; patient F87): 20 nM
IC50 (CYP2C9): 9.3 µM
Ki [2, 8]: 17 µM
Mechanism of inhibition [2, 8]: Competitive
Ki (CYP2C9*1 [3]; [8]): 17 µM
Mechanism of inhibition (CYP2C9*1 [3]; [8]): Mixed
Ki (CYP2C9*1 [3]; 7-hydroxywarfarin formation as marker, mixed inhibition): 133 µM
IC50 (CYP1A2): > 3000 µM
IC50 (CYP2C9*1 [4]): 8.4 µM
IC50 (CYP3A4 [5]): 39 µM
plasma protein binding affinity relative to warfarin (plasma proteins): affinity comparable to warfarin

CC(=O)CC(c1ccccc1)c1c(O)c2cc(O)ccc2oc1=O (stereo not shown) [6-OH-WAR, 6-hydroxywarfarin]
% R ([1]; patient F84): 65%
% S (proportion in (S)-enantiomeric form) ([1]; patient F84): 35%
% conjugated (proportion glucuronidated) ([1]; patient F84): 35%
urinary concentration ([1]; patient F84): 560 nM
% R ([1]; patient F85): 69%
% S (proportion in (S)-enantiomeric form) ([1]; patient F85): 31%
% conjugated (proportion glucuronidated) ([1]; patient F85): 15%
urinary concentration ([1]; patient F85): 1124 nM
% R ([1]; patient F87): 62%
% S (proportion in (S)-enantiomeric form) ([1]; patient F87): 38%
% conjugated (proportion glucuronidated) ([1]; patient F87): 12%
urinary concentration ([1]; patient F87): 204 nM
Km (UGT1A10): 399 ± 130 µM
Vmax (UGT1A10): 3.1 ± 0.4 nmol/mg protein/min
IC50 (CYP2C9): 47 µM
Ki [2, 8]: 167 µM
Mechanism of inhibition [2, 8]: Competitive
Ki, fold higher than the marker Km ([2]; human liver microsomes): approximately 32 fold
Ki (CYP2C9*1 [3]; [8]): > 170 µM
Mechanism of inhibition (CYP2C9*1 [3]; 7-hydroxywarfarin formation as marker, listed as 6-hydroxywarfarin): no inhibition was observed
Mechanism of inhibition (CYP2C9*1 [3]; 7-hydroxywarfarin formation as marker, listed as 6OHWAR): None
IC50 (CYP1A2): 1400 µM
IC50 (CYP2C9*1 [4]): 44.3 µM
IC50 (CYP3A4 [5]): > 500 µM
plasma protein binding affinity relative to warfarin (plasma proteins): three- to four-fold lower affinity

CC(=O)CC(c1ccccc1)c1c(O)c2ccc(O)cc2oc1=O (stereo not shown) [7-OH-WAR, 7-hydroxywarfarin]
% R ([1]; patient F84): 80%
% S (proportion in (S)-enantiomeric form) ([1]; patient F84): 20%
% conjugated (proportion glucuronidated) ([1]; patient F84): 69%
urinary concentration ([1]; patient F84): 1964 nM
% R ([1]; patient F85): 38%
% S (proportion in (S)-enantiomeric form) ([1]; patient F85): 62%
% conjugated (proportion glucuronidated) ([1]; patient F85): 28%
urinary concentration ([1]; patient F85): 2404 nM
% R ([1]; patient F87): 52%
% S (proportion in (S)-enantiomeric form) ([1]; patient F87): 48%
% conjugated (proportion glucuronidated) ([1]; patient F87): 14%
urinary concentration ([1]; patient F87): 724 nM
Km (UGT1A1): 58.8 ± 24 µM
Vmax (UGT1A1): 1.3 ± 0.1 nmol/mg protein/min
Km (UGT1A10): 220 ± 40 µM
Vmax (UGT1A10): 1.0 ± 0.1 nmol/mg protein/min
IC50 (CYP2C9): 35 µM
Ki [2, 9]: 64 µM
Mechanism of inhibition [2, 9]: Competitive
Ki, fold higher than the marker Km ([2]; human liver microsomes): 8.5 fold
Ki (CYP2C9*1 [3]; [9]): 10 µM
Mechanism of inhibition (CYP2C9*1 [3]; [9]): Competitive
Ki, fold higher than the marker Km (CYP2C9*1 [3]; recombinant CYP2C9): 4.5 fold
IC50 (CYP1A2): 400 µM
IC50 (CYP2C9*1 [4]): 45.7 µM
IC50 (CYP3A4 [5]): > 500 µM
plasma protein binding affinity relative to warfarin (plasma proteins): three- to four-fold lower affinity
mean unbound concentration in human plasma (estimated) [6]: 6.2 ng/mL

CC(=O)C(O)C(c1ccccc1)c1c(O)c2ccccc2oc1=O (stereo not shown) [10-OH-WAR, 10-hydroxywarfarin]
detection in urine specimens ([1]; any of the three specimens): not detected
IC50 (CYP2C9): 1.6 µM
Ki [2, 8]: 2.2 µM
Mechanism of inhibition [2, 8]: Competitive
Ki, fold lower than the microsomal Km for S-warfarin ([2]; human liver microsomes): 2.4 fold
Ki (CYP2C9*1 [3]; [8]): 0.94 µM
Mechanism of inhibition (CYP2C9*1 [3]; [8]): Competitive
Ki, fold lower than the Km for S-warfarin (CYP2C9*1 [3]; recombinant CYP2C9): approximately 2.5 fold
IC50 (CYP2C9*1 [4]): 2 µM
mean unbound concentration in human plasma (estimated) [6]: 5.8 ng/mL

CC(=O)C[C@@H](c1ccccc1)c1c(O)c2ccc(O)cc2oc1=O [(S)-7-OH-WAR, (S) 7-hydroxywarfarin]
share of (S)-WAR P450 metabolites measured [1]: 61-71%

CC(=O)C[C@@H](c1ccccc1)c1c(O)c2cccc(O)c2oc1=O [(S)-8-OH-WAR, (S) 8-hydroxywarfarin]
share of (S)-WAR P450 metabolites measured [1]: 4-20%

CC(=O)C[C@@H](c1ccccc1)c1c(O)c2ccccc2oc1=O [S-warfarin, (S) warfarin, reference compound]
Km (CYP3A4 [7]; 4′-hydroxywarfarin formation): 27 µM
Vmax (CYP3A4 [7]; 4′-hydroxywarfarin formation): 64 pmol product/min/nmol P450
Km (CYP3A4 [7]; 10-hydroxywarfarin formation): 26 µM
Vmax (CYP3A4 [7]; [10]): 76 pmol product/min/nmol P450
Km (CYP3A7; 4′-hydroxywarfarin formation): 2280 µM
Vmax (CYP3A7; 4′-hydroxywarfarin formation): 321 pmol product/min/nmol P450
Km (CYP3A7; 10-hydroxywarfarin formation): 81 µM
Vmax (CYP3A7; [10]): 22 pmol product/min/nmol P450
mean unbound concentration in human plasma (estimated) [6]: 2.7 ng/mL
